From article PMC4141478 (Nature communications, 2014)

Molecular target: T1, Full length EhIP6KA (Entamoeba histolytica, UniProt C4M387)
T1 sequence (C4M387 1-270): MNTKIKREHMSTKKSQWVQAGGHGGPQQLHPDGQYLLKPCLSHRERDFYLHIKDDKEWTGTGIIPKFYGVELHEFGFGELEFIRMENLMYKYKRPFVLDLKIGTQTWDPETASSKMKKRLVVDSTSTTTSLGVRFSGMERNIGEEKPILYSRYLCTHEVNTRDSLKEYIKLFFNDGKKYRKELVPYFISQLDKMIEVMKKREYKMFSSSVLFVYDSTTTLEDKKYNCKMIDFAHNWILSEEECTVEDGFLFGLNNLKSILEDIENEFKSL
Test: NMR of reaction product
Format: biochemical
Conditions: 3 mM ATP, 2 mM MgCl2, pH 7.0, 37 then 25 C; product 5-InsP7

O=P(O)(O)O[C@H]1[C@H](OP(=O)(O)O)[C@@H](OP(=O)(O)O)[C@H](OP(=O)(O)O)[C@@H](OP(=O)(O)O)[C@H]1OP(=O)(O)O [InsP6]
NMR of reaction product: EhIP6KA, like mammalian IP6Ks, converts InsP6 to 5-InsP7
